From patent US20060134206A1, “Oral compositions for treatment of diseases” (priority 2003, published 2006)
Blank lines part the entries; values can stand above or below the compound they belong to.

Tests used:
[1] = allows once daily treatment; cited from earlier work
[2] = tested on: human vascular ATP-dependent K+ channels; conditions: cited from earlier work
[3] = oral, conventional metformin; cited from earlier work
[4] = In-house study: metformin co-administered with propantheline; assay type: in vivo; conditions: compared with metformin alone
type 2 diabetes patients = conditions: overweight type 2 diabetes patients assigned metformin; microvascular and macrovascular; cited from earlier work
[5] = cited from earlier work
people with diabetes = conditions: versus placebo, cited from earlier work

SMILES: CCC1=C(C)CN(C(=O)NCCc2ccc(S(=O)(=O)NC(=O)N[C@H]3CC[C@H](C)CC3)cc2)C1=O [glimepiride]
long life [1]: 9 h | effect on human vascular ATP-dependent K+ channels [2]: no effect

AUC [4]: increased | Tmax [4]: delayed | time period over which therapeutically beneficial plasma levels were maintained [4]: extended
SMILES: CN(C)C(=N)N=C(N)N [metformin]
gastrointestinal absorption apparently complete (time after ingestion) [3]: ≤ 6 h | relative risk reduction of developing any diabetes related end points (type 2 diabetes patients): 32% | drug in plasma ([5]; drug perfused into the colon): not detectable | area under the plasma concentration-time profile, jejunum versus ileum perfusion ([5]; perfusion into jejunum compared with ileum): 2.5 fold

SMILES: CCOC(=O)[C@H](CCc1ccccc1)N[C@@H](C)C(=O)N1[C@H](C(=O)O)C[C@@H]2CCC[C@@H]21 [ramipril]
lowering of relative risk of a major cardiovascular event (myocardial infarction, stroke or cardiovascular death) (people with diabetes; 3,577 people with diabetes, 4.5 years): 25% | lowering of absolute risk of a major cardiovascular event (people with diabetes; 3,577 people with diabetes): 4.5% | absolute risk reduction of overt nephropathy (people with diabetes; people with diabetes): 2.0% | reduction of relative risk of overt nephropathy (people with diabetes; people with diabetes): 24%
